Columns and labels:
dogs = settings: cited from earlier work
dogs with hypertension = experiment: Prospective, block-randomized, double-blind clinical trial: systolic blood pressure (SBP) in client-owned dogs with proteinuric CKD; format: in vivo, dog; settings: for Average of SBP day 0: baseline; for Average of SBP day 0 / Average of SBP % change day 30 / Average of SBP change day 30 / Average of SBP % change day 60 / Average of SBP change day 60 / Average of SBP % change day 90 / Average of SBP change day 90 / Average of SBP day 30 / Average of SBP day 60 / Average of SBP day 90: dogs hypertensive at day 0, no amlodipine; for Average of SBP % change day 30 / Average of SBP change day 30 / Average of SBP % change day 60 / Average of SBP change day 60 / Average of SBP % change day 90 / Average of SBP change day 90 / Average of SBP % change day 120 / Average of SBP change day 120: change from baseline; for Average of SBP % change day 120 / Average of SBP change day 120: the other drug (telmisartan or enalapril) added after SBP measurement on day 90; for course of average SBP during the period of treatment: up to day 90
From the text: A prospective, block-randomized, double-blind clinical trial has been carried out. Fifty-four client-owned dogs with persistent pathologic renal proteinuria have been recruited over a 2-year period.
Azotemic and non-azotemic dogs (N=54) with hypertensive and non-hypertensive CKD have been recruited prospectively from patients presented to the hospital. Dogs included as cases will have confirmed persistent pathologic renal proteinuria due to CKD; in order to be classified as such, fulfillment of the criteria described below will be required.
Abdominal ultrasound findings consistent with CKD (bilaterally small, irregular kidneys) and absence of renal neoplasia have also been documented.
Dogs with suspected or confirmed hyper-adrenocorticism and diabetes mellitus have been included if their disease is considered well controlled with medical therapy.
Once included in the study and based on the presence/degree of azotemia, dogs have been grouped according to the International Renal Interest Society (IRIS) classification scheme for CKD. Those classified as IRIS stages 2-4 (serum creatinine ≥1.4 mg/dL with inappropriately dilute urine [USG<1.030]) have been considered azotemic (AZ), and those classified as IRIS stage 1 (creatinine <1.4 mg/dL) have been considered non-azotemic (non-AZ). Within each of these two groups, dogs will then be stratified according to IRIS recommendations for arterial pressure (AP) substaging. According to this scheme, dogs with persistent average indirect arterial systolic BP<150 mm Hg will be classified as AP0 (minimal risk for target organ damage). Those with persistent average indirect arterial systolic BP≥150 mm Hg have been classified as AP1-3 (at risk for target organ damage). Four groups will thus be identified: • 1. AZ (IRIS Stages 2-4), IRIS substage AP1-3 3. non-AZ (IRIS Stage 1), IRIS substage AP1-3 • 2. AZ (IRIS Stages 2-4), IRIS substage AP0 4. non-AZ (IRIS Stage 1), IRIS substage AP0
Once placed into one of these four groups, each patient has then been assigned, based on a randomized blocking scheme, to receive either enalapril (n=27) or telmisartan (n=27), as described below, with the aim of grouping being to ensure that equal numbers of each are included into the two treatment groups.
On inclusion (day 0), all owners have been required to read/sign a form consenting to their pets' participation in the study. The following baseline data have been collected for each case: full physical examination (performed by one of the study investigators), fundic examination, blood pressure measurement, serum chemistry panel, urinalysis, abdominal ultrasound, UPC and urine culture. The results of screening tests, if performed within 2 weeks of inclusion in the study, may be used as baseline information. Baseline UPC has been defined as the average of two measurements, taken 2 weeks apart, prior to enrollment.
On day 0, each dog has been randomized to receive telmisartan at 1 mg/kg PO q 24 h (TEL group, n=27) or enalapril at 0.5 mg/kg PO q 12 h (ENAL group, n=27) in a double-blind manner. Randomization and dispensation of telmisartan or enalapril has been carried out at the appropriate doses. Owners have been provided with appropriate contact numbers in the event of an emergency. Enalapril is readily available and telmisartan has been provided by Boehringer Ingelheim Vetmedica Inc., St. Joseph, MO in form of the an aqueous solution, which is commercially available as Semintra®.
For dogs that are classified as AP3 (SBP≥180 mmHg; ≥200 mmHg in sighthounds), a calcium channel blocker (CCB; amlodipine, 0.1 mg/kg PO q 24 hours) has been administered contemporaneously. Co-administration of RAAS-inhibitors and CCB is common in human patients, recommended by a panel of veterinary experts and shown to be efficacious in a laboratory model of proteinuria. All dogs have been started or maintained on a commercially available diet formulated to be low in phosphorus and protein, for at least 1 month prior to enrollment. […]

CCCc1nc2c(C)cc(-c3nc4ccccc4n3C)cc2n1Cc1ccc(-c2ccccc2C(=O)O)cc1 [Telmisartan]
effect on blood pressure (dogs; 1 mg/kg daily dose): have an effect on blood pressure | vascular and renal excretory effects (dogs; daily oral dose): produces vasodilation, diuresis and natriuresis without influencing potassium or creatinine excretion | Average of SBP day 0 (dogs with hypertension): 163.57 mmHg | Average of SBP day 0 (dogs with hypertension; listed as telmisartan): 163 mmHg | Average of SBP % change day 30 (dogs with hypertension; day 30): −18.88% | Average of SBP change day 30 (dogs with hypertension; day 30): −31.50 mmHg | Average of SBP % change day 60 (dogs with hypertension): −18.42% | Average of SBP change day 60 (dogs with hypertension): −31.00 mmHg | Average of SBP % change day 90 (dogs with hypertension): −22.58% | Average of SBP change day 90 (dogs with hypertension): −37.00 mmHg | Average of SBP % change day 120 (dogs with hypertension; no amlodipine): −42.70^2% | Average of SBP change day 120 (dogs with hypertension; no amlodipine): −76.00^2 mmHg | absolute average SBP compared to enalapril treated dogs (dogs with hypertension; day 0 to day 90, no amlodipine, FIG. 4): much lower | average change of SBP, reduction compared to enalapril-treated dogs (dogs with hypertension; day 30): at least 30 mmHg | reduction in SBP (dogs with hypertension; day 30, FIG. 2): ~20% | average SBP change from baseline compared to enalapril (dogs with hypertension; day 30, day 60 and day 90, dogs with SBP of at least 150 mmHg at day 0 which received amlodipine, FIG. 3): greater | Average of SBP day 30 (dogs with hypertension; day 30): 140.86 mmHg | average change (reduction) in SBP compared to enalapril treated dogs (dogs with hypertension; day 30 to day 90, no amlodipine, FIGS. 1 and 2): greater | Average of SBP day 60 (dogs with hypertension): 138.60 mmHg | Average of SBP day 90 (dogs with hypertension): 132.33 mmHg | Average of SBP day 90 (dogs with hypertension; listed as telmisartan): 132 mmHg | course of average SBP during the period of treatment (dogs with hypertension; no amlodipine): constantly lowered

CCOC(=O)[C@H](CCc1ccccc1)N[C@@H](C)C(=O)N1CCC[C@H]1C(=O)O [Enalapril]
Average of SBP day 0 (dogs with hypertension): 163.17 mmHg | Average of SBP day 0 (dogs with hypertension; listed as enalapril): 163 mmHg | Average of SBP % change day 30 (dogs with hypertension; day 30): +12.90% | Average of SBP change day 30 (dogs with hypertension; day 30): +20.00 mmHg | Average of SBP % change day 60 (dogs with hypertension): +0.65% | Average of SBP change day 60 (dogs with hypertension): +1.00 mmHg | Average of SBP % change day 90 (dogs with hypertension): +1.94% | Average of SBP change day 90 (dogs with hypertension): +3.00 mmHg | Average of SBP % change day 120 (dogs with hypertension; no amlodipine): −20.65^1% | Average of SBP change day 120 (dogs with hypertension; no amlodipine): −32.00^1 mmHg | SBP increased (dogs with hypertension; day 30, FIG. 2): more than 10% | Average of SBP day 30 (dogs with hypertension; day 30): 153.80 mmHg | Average of SBP day 30 (dogs with hypertension; day 30, listed as enalapril): 153 mmHg | Average of SBP day 60 (dogs with hypertension): 153.00 mmHg | Average of SBP day 90 (dogs with hypertension): 158.00 mmHg | course of average SBP during the period of treatment (dogs with hypertension; no amlodipine): increased again on days 60 and 90
